From ChEMBL document CHEMBL1142531, “Discovery and biological profile of 4-(1-aryltriazol-4-yl)-tetrahydropyridines as an orally active new class of metabotropic glutamate receptor 1 antagonist” (Bioorg Med Chem, 2008) come the findings set out here.

In brackets after ≈: the same amount, converted by molar mass. Activity calls are given as the source filed them. Some results are limits rather than exact numbers.

For series [1], the target named is Metabotropic glutamate receptor 1 (Mus musculus, UniProt P97772). The experiment in a line: Antagonist activity at mouse mGluR1 expressed in CHO cells assessed as calcium flux by FLIPR assay. In kind it is functional, cell-based. (In general: Calcium flux is commonly read through the fluorescence of an indicator in the cells.)
Sequence of Metabotropic glutamate receptor 1 (Mus musculus, UniProt P97772) (P97772 whole entry): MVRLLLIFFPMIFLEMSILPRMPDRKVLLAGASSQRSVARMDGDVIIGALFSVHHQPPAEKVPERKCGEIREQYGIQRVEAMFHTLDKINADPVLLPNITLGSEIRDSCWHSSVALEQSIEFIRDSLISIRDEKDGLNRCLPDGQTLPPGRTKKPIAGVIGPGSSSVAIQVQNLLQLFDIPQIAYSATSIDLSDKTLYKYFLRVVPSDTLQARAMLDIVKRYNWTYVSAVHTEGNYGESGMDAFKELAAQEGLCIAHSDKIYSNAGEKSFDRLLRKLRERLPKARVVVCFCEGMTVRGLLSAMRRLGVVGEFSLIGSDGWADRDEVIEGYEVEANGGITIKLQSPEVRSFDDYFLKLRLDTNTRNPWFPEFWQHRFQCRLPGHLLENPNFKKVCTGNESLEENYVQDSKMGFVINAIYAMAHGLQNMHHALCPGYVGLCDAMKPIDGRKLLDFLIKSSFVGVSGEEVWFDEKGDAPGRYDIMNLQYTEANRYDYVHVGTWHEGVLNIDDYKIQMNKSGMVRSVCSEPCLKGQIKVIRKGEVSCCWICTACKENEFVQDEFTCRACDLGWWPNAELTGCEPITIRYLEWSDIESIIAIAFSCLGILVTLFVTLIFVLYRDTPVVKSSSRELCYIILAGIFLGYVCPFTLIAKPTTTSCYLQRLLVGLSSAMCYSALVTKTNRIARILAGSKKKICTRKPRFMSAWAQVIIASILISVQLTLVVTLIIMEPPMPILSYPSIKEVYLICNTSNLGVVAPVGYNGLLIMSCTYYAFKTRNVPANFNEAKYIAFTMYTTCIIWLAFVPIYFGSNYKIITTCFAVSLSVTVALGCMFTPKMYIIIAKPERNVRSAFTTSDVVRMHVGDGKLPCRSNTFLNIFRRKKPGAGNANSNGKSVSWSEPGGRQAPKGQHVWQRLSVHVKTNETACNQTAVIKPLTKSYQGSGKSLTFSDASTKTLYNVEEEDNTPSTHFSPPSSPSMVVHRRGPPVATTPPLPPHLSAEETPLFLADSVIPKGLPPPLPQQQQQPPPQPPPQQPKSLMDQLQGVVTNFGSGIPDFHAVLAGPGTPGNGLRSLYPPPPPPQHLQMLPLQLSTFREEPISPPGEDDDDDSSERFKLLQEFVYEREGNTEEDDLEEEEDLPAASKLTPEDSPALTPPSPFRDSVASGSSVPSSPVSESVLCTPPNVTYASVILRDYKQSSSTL
Series [2] can be described thus: Octanol-water partition coefficient, log D at pH 7.4 by shake flask method. In kind it is physicochemical.
The target in series [3] is Metabotropic glutamate receptor 5 (Homo sapiens, UniProt P41594). As to the kind of experiment: Antagonist activity at human mGluR5 expressed in CHO cells assessed as calcium flux by FLIPR assay. Format: functional, cell-based.
Sequence of Metabotropic glutamate receptor 5 (P41594 whole entry): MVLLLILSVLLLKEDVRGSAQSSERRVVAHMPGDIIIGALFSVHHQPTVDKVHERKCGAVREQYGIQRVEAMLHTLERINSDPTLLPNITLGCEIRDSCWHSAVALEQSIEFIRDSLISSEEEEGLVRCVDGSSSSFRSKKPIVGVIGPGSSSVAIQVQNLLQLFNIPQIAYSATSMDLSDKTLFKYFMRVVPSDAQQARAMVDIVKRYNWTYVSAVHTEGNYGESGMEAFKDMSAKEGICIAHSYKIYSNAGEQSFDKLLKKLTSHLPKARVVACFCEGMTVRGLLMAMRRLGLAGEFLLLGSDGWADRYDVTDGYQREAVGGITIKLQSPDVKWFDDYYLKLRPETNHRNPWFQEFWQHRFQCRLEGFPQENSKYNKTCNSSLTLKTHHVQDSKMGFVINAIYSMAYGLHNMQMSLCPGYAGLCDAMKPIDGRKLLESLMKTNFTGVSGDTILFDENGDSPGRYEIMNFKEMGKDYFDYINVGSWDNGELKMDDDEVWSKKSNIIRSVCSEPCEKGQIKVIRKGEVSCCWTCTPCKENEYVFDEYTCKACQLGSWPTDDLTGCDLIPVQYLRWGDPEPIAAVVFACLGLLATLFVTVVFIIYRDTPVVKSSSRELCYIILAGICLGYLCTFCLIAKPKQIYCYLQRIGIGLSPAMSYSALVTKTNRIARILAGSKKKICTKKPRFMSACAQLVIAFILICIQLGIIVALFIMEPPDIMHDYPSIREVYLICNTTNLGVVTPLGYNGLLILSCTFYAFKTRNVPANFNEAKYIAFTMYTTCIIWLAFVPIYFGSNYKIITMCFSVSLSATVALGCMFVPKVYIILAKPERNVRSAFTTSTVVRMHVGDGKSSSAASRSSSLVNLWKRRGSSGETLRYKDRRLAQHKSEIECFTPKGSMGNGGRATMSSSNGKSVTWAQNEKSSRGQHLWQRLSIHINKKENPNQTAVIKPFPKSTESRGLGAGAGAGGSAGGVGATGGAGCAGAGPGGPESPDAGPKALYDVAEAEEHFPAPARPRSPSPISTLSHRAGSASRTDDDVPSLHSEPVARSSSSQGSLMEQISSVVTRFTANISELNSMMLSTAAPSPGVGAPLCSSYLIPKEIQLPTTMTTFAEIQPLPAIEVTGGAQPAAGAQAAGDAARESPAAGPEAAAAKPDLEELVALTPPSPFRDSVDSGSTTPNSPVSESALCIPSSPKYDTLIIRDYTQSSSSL
Series [4] deals with Metabotropic glutamate receptor 1 (Homo sapiens, UniProt Q13255). The experiment in a line: Antagonist activity at human mGluR1 expressed in CHO cells assessed as calcium flux by FLIPR assay. Format: functional, cell-based.
Sequence of Metabotropic glutamate receptor 1 (Homo sapiens, UniProt Q13255) (Q13255 whole entry): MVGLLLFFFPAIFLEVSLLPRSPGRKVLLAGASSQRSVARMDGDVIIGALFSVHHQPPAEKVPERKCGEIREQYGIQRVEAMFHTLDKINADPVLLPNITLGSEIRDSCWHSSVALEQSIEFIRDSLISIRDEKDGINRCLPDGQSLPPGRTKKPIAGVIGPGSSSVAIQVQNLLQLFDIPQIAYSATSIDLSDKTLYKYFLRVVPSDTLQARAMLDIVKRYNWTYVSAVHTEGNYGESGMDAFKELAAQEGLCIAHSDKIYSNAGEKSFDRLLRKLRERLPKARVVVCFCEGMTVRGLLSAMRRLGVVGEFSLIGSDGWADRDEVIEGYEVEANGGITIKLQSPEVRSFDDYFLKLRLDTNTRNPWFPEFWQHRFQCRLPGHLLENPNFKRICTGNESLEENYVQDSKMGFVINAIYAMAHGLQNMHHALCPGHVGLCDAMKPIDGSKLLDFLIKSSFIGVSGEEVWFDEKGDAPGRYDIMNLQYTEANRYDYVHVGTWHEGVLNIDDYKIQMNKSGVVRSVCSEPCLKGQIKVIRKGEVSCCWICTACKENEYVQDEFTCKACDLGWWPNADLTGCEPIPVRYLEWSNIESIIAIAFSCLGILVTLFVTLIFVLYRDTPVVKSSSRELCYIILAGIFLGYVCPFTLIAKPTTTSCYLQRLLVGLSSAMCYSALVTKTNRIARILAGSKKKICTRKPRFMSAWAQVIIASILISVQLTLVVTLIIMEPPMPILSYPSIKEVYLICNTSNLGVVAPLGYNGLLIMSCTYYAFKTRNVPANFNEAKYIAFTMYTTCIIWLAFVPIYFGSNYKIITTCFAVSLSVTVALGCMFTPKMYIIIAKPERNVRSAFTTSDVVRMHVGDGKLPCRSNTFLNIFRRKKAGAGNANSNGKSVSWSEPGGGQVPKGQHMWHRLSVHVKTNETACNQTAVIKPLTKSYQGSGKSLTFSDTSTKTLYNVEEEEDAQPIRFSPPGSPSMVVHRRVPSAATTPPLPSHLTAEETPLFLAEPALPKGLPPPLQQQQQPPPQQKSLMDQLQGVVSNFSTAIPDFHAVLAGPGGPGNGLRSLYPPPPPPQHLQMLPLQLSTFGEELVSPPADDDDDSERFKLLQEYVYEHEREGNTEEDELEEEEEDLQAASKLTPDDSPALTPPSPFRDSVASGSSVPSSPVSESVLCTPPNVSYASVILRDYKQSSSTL
In series [5] the test system is Mus musculus. As to the kind of experiment: Inhibition of (S)-3,5-[…]-induced face washing behavior in mouse administered 30 mins before (S)-3,5-DHPG measured after 5 mins. Format: functional, organism-based.
The nature of series [6]: Solubility in water by ultra performance liquid chromatography. In kind it is physicochemical.
Series [7] can be described thus: Metabolic stability in rat liver microsomes at 1 uM after 30 mins. In kind it is ADME, Microsome. The following applies: read-out: Stability. On the technique in general: Microsomes from liver hold many membrane-bound enzymes, among them those of drug oxidation.
Series [8] can be described thus: Metabolic stability in human liver microsomes at 1 uM after 30 mins. Format: ADME, Microsome. Conditions: read-out: Stability.
In series [9] the test system is Mus musculus. The experiment in a line: Inhibition of (S)-3,5-[…]-induced face washing behavior in mouse at 3 to 10 mg/kg, ip administered 30 mins before (S)-3,5-DHPG measured after 5 mins. In kind it is functional, organism-based.
Series [10] in a line: Metabolic stability in mouse liver microsomes at 1 uM after 30 mins. Format: ADME, Microsome. Conditions: read-out: Stability.
The nature of series [11]: Oral bioavailability in rat at 3 mg/kg. Format: ADME, organism-based. The following applies: in vivo.
The target in series [12] is Metabotropic glutamate receptor 8 (Homo sapiens) (UniProt O00222). As to the kind of experiment: Activity at human mGluR8 expressed in CHO-K1 cells at 10 uM by [35S]GTPgammaS binding assay. In kind it is functional, cell-based. On the technique in general: GTPγS resists hydrolysis and so accumulates on activated G proteins.
Series [13] is described as follows: Inhibition of kainate receptor.
The test system of series [14] is Mus musculus. As to the kind of experiment: Inhibition of (S)-3,5-[…]-induced face washing behavior in mouse at 10 to 30 mg/kg, po administered 30 mins before (S)-3,5-DHPG measured after 5 mins. In kind it is functional, organism-based.
Series [15] concerns the target Metabotropic glutamate receptor 7 (Homo sapiens) (UniProt Q14831). The experiment in a line: Activity at human mGluR7 expressed in CHO cells at 10 uM by [35S]GTPgammaS binding assay. Format: functional, cell-based.
The nature of series [16]: Total plasma clearance in rat at 1 mg/kg, iv. Format: ADME, organism-based. Details: dose 1 mg/kg, route intravenous.
In series [17] the test system is Mus musculus. The experiment in a line: Inhibition of (S)-3,5-[…]-induced face washing behavior in mouse at 10 to 30 mg/kg, ip administered 30 mins before (S)-3,5-DHPG measured after 5 mins. In kind it is functional, organism-based.
Series [18] relates to Mus musculus. The experiment in a line: Brain concentration in mouse at 10 mg/kg, po after 30 mins. Conditions: in vivo, 0.5 h. Details: dose 10 mg/kg, route oral. Format: ADME, organism-based.
Series [19] has as its target Metabotropic glutamate receptor 6 (Homo sapiens) (UniProt O15303). The experiment in a line: Activity at human mGluR6 expressed in CHO cells at 10 uM by [35S]GTPgammaS binding assay. In kind it is functional, cell-based.
The nature of series [20]: Inhibition of NMDA receptor.
Series [21] can be described thus: Plasma concentration in mouse at 10 mg/kg, po after 30 mins. Format: ADME, organism-based. Further details: dose 10 mg/kg, route oral.
The target in series [22] is Metabotropic glutamate receptor 4 (Homo sapiens) (UniProt Q14833). The experiment in a line: Activity at human mGluR4 expressed in CHO cells at 10 uM by [35S]GTPgammaS binding assay. Format: functional, cell-based.
The target of series [23] is Metabotropic glutamate receptor 2 (Homo sapiens) (UniProt Q14416). As to the kind of experiment: Activity at human mGluR2 expressed in CHO cells at 10 uM by [35S]GTPgammaS binding assay. Format: functional, cell-based.
Sequence of Metabotropic glutamate receptor 2 (Homo sapiens) (Q14416 19-872 limits assumed): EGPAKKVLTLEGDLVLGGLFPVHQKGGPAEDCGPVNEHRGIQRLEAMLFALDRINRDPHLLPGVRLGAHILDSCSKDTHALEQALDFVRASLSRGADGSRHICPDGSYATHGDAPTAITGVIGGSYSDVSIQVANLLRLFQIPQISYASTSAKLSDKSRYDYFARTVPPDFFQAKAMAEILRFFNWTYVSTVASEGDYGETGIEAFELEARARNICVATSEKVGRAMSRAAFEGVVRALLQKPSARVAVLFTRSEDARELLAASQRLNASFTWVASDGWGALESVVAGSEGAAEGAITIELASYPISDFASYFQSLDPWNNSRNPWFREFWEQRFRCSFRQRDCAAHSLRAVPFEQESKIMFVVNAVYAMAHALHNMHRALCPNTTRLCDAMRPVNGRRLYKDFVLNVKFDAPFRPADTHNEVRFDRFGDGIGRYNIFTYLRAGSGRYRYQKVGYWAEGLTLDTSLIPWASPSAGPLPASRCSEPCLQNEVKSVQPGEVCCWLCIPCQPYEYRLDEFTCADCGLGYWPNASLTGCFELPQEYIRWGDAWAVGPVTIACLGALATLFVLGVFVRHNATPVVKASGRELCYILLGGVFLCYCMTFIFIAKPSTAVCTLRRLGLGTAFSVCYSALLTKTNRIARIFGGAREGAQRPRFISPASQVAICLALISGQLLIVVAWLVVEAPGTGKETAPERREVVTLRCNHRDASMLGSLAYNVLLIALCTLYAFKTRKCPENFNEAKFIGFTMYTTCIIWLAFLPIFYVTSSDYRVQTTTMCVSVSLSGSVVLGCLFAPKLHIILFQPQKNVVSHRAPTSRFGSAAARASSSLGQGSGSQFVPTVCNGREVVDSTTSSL
A short description of series [24]: Inhibition of AMPA receptor.
Series [25] can be described thus: Half life in rat at 1 mg/kg, iv. In kind it is ADME, organism-based. Conditions: in vivo. Details: dose 1 mg/kg, route intravenous.

On to `CC(C)OC(=O)N1CC=C(c2cn(-c3cccnc3F)nn2)CC1`, for which the IC50 came out at 180 nM in series [1], 3900 nM in [3] and 39 nM in series [4]. The same molecule gave a logD in [2] of 2.8.
With `CC(C)(C)CC(=O)N1CC=C(c2cn(-c3ccccc3F)nn2)CC1`, the values for the half-inhibitory concentration (IC50) in [1], in series [3] and in series [4] were 160 nM, over 10000 nM and 120 nM, respectively.
Regarding `Cc1c(C2=CCN(C(=O)OC(C)C)CC2)nnn1-c1cccnc1F`, the concentration for half-maximal inhibition (IC50) in [1] came out at 3.3 nM; in [3] it was 40 nM; in series [4] it was 7.2 nM. Further, in series [2], the logD came to 2.8.
`CC(C)(C)OC(=O)N1CC=C(c2cn(-c3cccnc3)nn2)CC1`: the IC50 in series [1] came out at 180 nM; in series [3], 8300 nM; in series [4], 55 nM. The logD in series [2] stood at 3.
With `NC1(C(=O)O)CCc2cc(C(=O)O)ccc21` (racemic), the outcome in series [5] was Active.
For the molecule `CC(C)(C)OC(=O)N1CC=C(c2cn(-c3ccc(F)cc3)nn2)CC1`, the figures for the IC50 in series [1], in series [3] and in series [4] were 31 nM, 1100 nM and 16 nM, respectively. This molecule showed a logD in [2] of over 4.
For `COc1ccccc1-n1cc(C2=CCN(C(=O)OC(C)(C)C)CC2)nn1`, the IC50 in [1] was 1600 nM; in series [3], 4000 nM; in series [4] it was 590 nM.
Consider `CC(C)(C)OC(=O)N1CC=C(c2cn(-c3cccnc3F)nn2)CC1`, for which the values for the concentration for half-maximal inhibition (IC50) in series [1], in [3] and in [4] were 12 nM, 4300 nM and 2.6 nM, respectively. Also, the logD in series [2] is 3.1.
As for `CC(C)(C)OC(=O)N1CC=C(c2cn(-c3ccccn3)nn2)CC1`, the IC50 in series [1] is 150 nM; in series [3], 8700 nM; in [4] it was 49 nM. Besides, the pH-dependent lipophilicity (logD) in series [2] is over 4.
As for `CC(C)(C)OC(=O)N1CC=C(c2cn(-c3ccccc3F)nn2)CC1`, the half-inhibitory concentration (IC50) in series [1] is 16 nM; in series [3] it was 1000 nM; in series [4] it was 6.3 nM. The molecule also gave a logD in series [2] of over 4.
In series [6], `CC(C)(C)OC(=O)N1CC=C(c2cn(-c3ccccc3)nn2)CC1` had a solubility of 2.4 µM (≈ 0.783 µg/mL). Also, the IC50 in [1] is 24 nM; in series [3] it was 820 nM; in series [4] it was 9.8 nM. In [2], this molecule displayed a logD of over 4. Besides, the values for the remaining at 0.5 h, 1 µM in series [7] and in [8] were 16% and 57%, respectively.
Turning to `CC(C)(C)OC(=O)N1CC=C(c2cn(-c3ccncc3)nn2)CC1`, the values for the IC50 in series [1], in [3] and in series [4] were 1000 nM, over 10000 nM and 220 nM, respectively.
In the case of `CC(C)(C)NC(=O)N1CC=C(c2cn(-c3ccccc3F)nn2)CC1`, the IC50 in [1] turned out to be 290 nM; in series [3], 8600 nM; in series [4], 57 nM. Moreover, the logD in series [2] was 3.2.
Consider `N[C@H](C(=O)O)c1ccc(C(=O)O)cc1`, for which the result in series [5] was Active.
On to `Cc1c(C2=CCN(C(=O)OC(C)(C)C)CC2)nnn1-c1cccnc1F`, for which the solubility in series [6] is 155 µM (≈ 55.7 µg/mL). In addition, the 50% inhibitory concentration (IC50) in series [1] was 1.5 nM; in series [3], 170 nM; in [4], 7 nM. For the same molecule, the log distribution coefficient (logD) in series [2] stood at 2.9. Also, the remaining at 0.5 h, 1 µM came out at 70% in series [7], 90% in series [8] and 2% in series [10]. Further, in series [9], the outcome was Active.
Regarding `CC(C)(C)OC(=O)N1CC=C(c2cn(-c3cccc(F)c3)nn2)CC1`, the IC50 was found to be 39 nM in series [1], 1100 nM in series [3] and 18 nM in series [4]. The pH-dependent lipophilicity (logD) in [2] was over 4.
In [11], `Cc1c(C2=CCN(C(=O)N(C)C(C)C)CC2)nnn1-c1cccnc1F` gave a bioavailability of 18%. For the same molecule, the result in series [12], in series [15], in [19], in [22] and in series [23] was inactive. Also, the solubility in series [6] was over 170 µM. Moreover, the 50% inhibitory concentration (IC50) in series [13] was over 10000 nM; in [1], 3.1 nM; in [3], 6200 nM; in series [20], over 10000 nM; in series [24] it was over 10000 nM. Further, the outcome in series [14] and in [17] was Active. The same molecule gave a clearance in series [16] of 57 mL/min/kg. This molecule also had a Drug uptake in series [18] of 0.17 nmol/g. The same molecule registered a logD in [2] of 2.1. In addition, the remaining at 0.5 h, 1 µM in series [7] was 61%; in series [8], 85%; in series [10] it was 27%. The concentration at 0.5 h in series [21] came out at 210 nM. This molecule also gave a half-life in series [25] of 12 min.
With `Cc1ccccc1-n1cc(C2=CCN(C(=O)OC(C)(C)C)CC2)nn1`, the IC50 in series [1] came out at 58 nM; in series [3] it was 880 nM; in series [4] it was 11 nM. For the same molecule, the logD in [2] was over 4.

A word on the IC50: it is the concentration that inhibits the measured activity by half. As a reminder, the logD is the decadic logarithm of the distribution of all forms, ionised or not, between an organic phase and buffer at a given pH. By solubility is commonly meant how much of the substance goes into solution per volume. As a reminder, the bioavailability is dose-corrected exposure relative to a reference, in per cent. High values mean much systemic uptake, low ones little systemic uptake. Usually clearance stands for the rate of elimination divided by the concentration. Low readings indicate a low capacity for elimination, high ones a high capacity for elimination. One may read the half-life as the time needed for the level to fall by half in the phase considered.
